# In paper PMC4601019, “Bacillus cereus eﬄux protein BC3310 – a multidrug transporter of the unknown major facilitator family, UMF-2” (Frontiers in Microbiology, 2015):
# Molecular target: T1, BC3310 (Bacillus cereus, UniProt Q81B77)
# T1 construct: gene BC_3310; full-length in pTTQ18 with C-terminal RGSHis6 tag, expressed in E. coli DH5alpha deltaacrAB; 12 predicted TM helices; migrates at ~30 kDa
# Experiment: whole-cell ethidium accumulation assay (fluorescence), E. coli expressing BC3310 vs empty vector
# Assay type: cell-based
# Conditions: 25 uM ethidium bromide, PBS with 0.4% glucose, pH 7-7.4; CCCP-sensitive efflux
# T1 sequence (Q81B77 entry or part of it): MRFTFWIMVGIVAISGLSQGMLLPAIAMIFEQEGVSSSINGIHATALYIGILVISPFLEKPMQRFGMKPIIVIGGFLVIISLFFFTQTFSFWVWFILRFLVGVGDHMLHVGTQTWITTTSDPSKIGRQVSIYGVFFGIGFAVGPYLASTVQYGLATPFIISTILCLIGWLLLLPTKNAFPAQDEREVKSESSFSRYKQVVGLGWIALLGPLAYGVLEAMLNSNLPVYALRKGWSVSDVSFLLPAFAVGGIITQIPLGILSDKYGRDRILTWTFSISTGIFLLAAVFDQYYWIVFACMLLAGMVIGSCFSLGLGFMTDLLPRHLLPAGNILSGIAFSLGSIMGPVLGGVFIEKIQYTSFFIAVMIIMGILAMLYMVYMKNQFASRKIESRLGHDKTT
smiles,measurement,value
CC[n+]1c(-c2ccccc2)c2cc(N)ccc2c2ccc(N)cc21 [ethidium bromide],"whole-cell ethidium accumulation assay (fluorescence), E. coli expressing BC3310","showed less fluorescence compared to the empty vector control (pTTQ18), thereby implying that BC3310 exports"
